The source of these data is PubChem BioAssay AID330 (DTP/NCI, 2004).

Each structure is given as a SMILES string. Values joined by “and” are separate entries in the source; they are usually repeats but may differ in a detail not shown here. Equal values may be shown once. Inconclusive results and toxic doses are left out.

The subject of the assay is P388 leukemia ip, CD2F1 mice, survival T/C. The experiment in a line: NCI In Vivo Anticancer Drug Screen. Data for tumor model P388 Leukemia (intraperitoneal) in CD2F1 (CDF1) mice. The conditions noted are these: endpoint: median survival time, higher = longer survival. The method in brief: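 Mice carrying the transplanted tumor received test compound or vehicle. Survival was recorded in each group, and the value is the treated-group measurement divided by that of the vehicle-treated control group.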

Where [1] appears, read: dose: 50.0 mg/kg/injection, schedule: Q01DX009 (ip), vehicle: saline.
Setting [2] is: dose: 100.0 mg/kg/injection, schedule: Q01DX009 (ip), vehicle: saline.
Where [3] appears, read: dose: 200.0 mg/kg/injection, schedule: Q01DX009 (ip), vehicle: saline.

On to `NC(=O)c1cc([N+](=O)[O-])ccc1N=NN(CCCl)Cc1ccccc1`, for which the T/C runs as follows: (dose: 100.0 mg/kg/injection, schedule: Q04DX003 (ip), vehicle: Klucel (hydroxypropylcellulose) (HPC)) 111 % of control; (dose: 200.0 mg/kg/injection, schedule: Q04DX003 (ip), vehicle: Klucel (hydroxypropylcellulose) (HPC)) 122 % of control; (dose: 400.0 mg/kg/injection, schedule: Q04DX003 (ip), vehicle: Klucel (hydroxypropylcellulose) (HPC)) 162 % of control.

Take `O=C1OC(c2ccccc2)=N/C1=C\c1ccc(/C=C2/N=C(c3ccccc3)OC2=O)cc1`: the T/C by setting is: (dose: 100.0 mg/kg/injection, schedule: Q04DX002 (ip), vehicle: saline with Tween-80) 100 % of control; (dose: 200.0 mg/kg/injection, schedule: Q04DX002 (ip), vehicle: saline with Tween-80) 104 % of control; (dose: 400.0 mg/kg/injection, schedule: Q04DX002 (ip), vehicle: saline with Tween-80) 95 % of control.

Consider `COC1/C=C/C=C(/C)Cc2cc(O)c(Cl)c(c2)N(C)C(=O)CC(OC(=O)C(C)C)C2(C)OC2C(C)C2CC1(O)NC(=O)O2` (stereo not given), for which the T/C (dose: 50.0 micrograms/kg/injection, schedule: Q01DX009 (ip), vehicle: saline + alcohol) was 153 % of control; the T/C (dose: 100.0 micrograms/kg/injection, schedule: Q01DX009 (ip), vehicle: saline + alcohol) was 177 % of control and 190 % of control; the T/C (dose: 200.0 micrograms/kg/injection, schedule: Q01DX009 (ip), vehicle: saline + alcohol) is 185 % of control and 221 % of control; the T/C (dose: 400.0 micrograms/kg/injection, schedule: Q01DX009 (ip), vehicle: saline + alcohol) was 177 % of control and 230 % of control; the T/C (dose: 800.0 micrograms/kg/injection, schedule: Q01DX009 (ip), vehicle: saline + alcohol) is 192 % of control and 205 % of control; the T/C (dose: 1000.0 micrograms/kg/injection, schedule: Q01DX009 (ip), vehicle: saline + alcohol) was 182 % of control.

As for `c1ccc(CN2CC[N+](Cc3ccccc3)=C2C2=[N+](Cc3ccccc3)CCN2Cc2ccccc2)cc1`, the T/C was 89 % of control (dose: 12.5 mg/kg/injection, schedule: Q01DX009 (ip), vehicle: suspension in saline); 96 % of control (dose: 25.0 mg/kg/injection, schedule: Q01DX009 (ip), vehicle: suspension in saline); 91 % of control (dose: 50.0 mg/kg/injection, schedule: Q01DX009 (ip), vehicle: suspension in saline).

For `C[N+](C)(CCCCCC[N+](C)(C)C1c2ccccc2-c2ccccc21)C1c2ccccc2-c2ccccc21`, the T/C is, setting by setting: (dose: 0.13 mg/kg/injection, schedule: Q01DX009 (ip), vehicle: saline) 105 % of control; (dose: 0.25 mg/kg/injection, schedule: Q01DX009 (ip), vehicle: saline) 105 % of control; (dose: 0.5 mg/kg/injection, schedule: Q01DX009 (ip), vehicle: saline) 102 % of control; (dose: 1.0 mg/kg/injection, schedule: Q01DX009 (ip), vehicle: saline) 101 % of control.

In the case of `O=C(O)c1cccc2c1C(=O)c1ccccc1-2`, the T/C reads like this: (dose: 50.0 mg/kg/injection, schedule: Q01DX005 (ip), vehicle: Klucel (hydroxypropylcellulose) (HPC)) 95 % of control; (dose: 100.0 mg/kg/injection, schedule: Q01DX005 (ip), vehicle: Klucel (hydroxypropylcellulose) (HPC)) 100 % of control; (dose: 200.0 mg/kg/injection, schedule: Q01DX005 (ip), vehicle: Klucel (hydroxypropylcellulose) (HPC)) 105 % of control.

On to `C/C=C1\CN2CCC34c5ccccc5N(C)C35OCC4(C(=O)OC)C1CC25` (stereo not given), for which the T/C reads like this: (dose: 5.25 mg/kg/injection, schedule: Q01DX005 (ip), vehicle: saline + Tween-80 + alcohol) 100 % of control; (dose: 10.5 mg/kg/injection, schedule: Q01DX005 (ip), vehicle: saline + Tween-80 + alcohol) 92 % of control; (dose: 21.0 mg/kg/injection, schedule: Q01DX005 (ip), vehicle: saline + Tween-80 + alcohol) 98 % of control; (dose: 42.0 mg/kg/injection, schedule: Q01DX005 (ip), vehicle: saline + Tween-80 + alcohol) 96 % of control.

On to `O=c1ccn2c(=O)n1CCCCn1cnc3ncnc(c31)SCCC2`, for which the T/C is 94 % of control (dose: 50.0 mg/kg/injection, schedule: Q01DX001 (ip), vehicle: Klucel (hydroxypropylcellulose) (HPC)); 86 % of control (dose: 100.0 mg/kg/injection, schedule: Q01DX001 (ip), vehicle: Klucel (hydroxypropylcellulose) (HPC)); 90 % of control (dose: 200.0 mg/kg/injection, schedule: Q01DX001 (ip), vehicle: Klucel (hydroxypropylcellulose) (HPC)); 90 % of control (dose: 400.0 mg/kg/injection, schedule: Q01DX001 (ip), vehicle: Klucel (hydroxypropylcellulose) (HPC)).

With `CC1CN(C(=O)Nc2ccc([N+](=O)[O-])cc2)CC(C)O1` (stereo not given), the T/C (dose: 50.0 mg/kg/injection, schedule: Q01DX009 (ip), vehicle: saline with Tween-80) is 96 % of control; the T/C (dose: 100.0 mg/kg/injection, schedule: Q01DX009 (ip), vehicle: saline with Tween-80) is 87 % of control; the T/C (dose: 200.0 mg/kg/injection, schedule: Q01DX009 (ip), vehicle: saline with Tween-80) was 89 % of control.

For `CC(=O)N(C)C`, the T/C by setting is: (dose: 0.25 % in 0.5 ml injection vol, schedule: Q01DX009 (ip), vehicle: water) 102 % of control; (dose: 0.5 % in 0.5 ml injection vol, schedule: Q01DX009 (ip), vehicle: water) 100 % of control and 102 % of control; (dose: 1.0 % in 0.5 ml injection vol, schedule: Q01DX009 (ip), vehicle: water) 99 % of control and 102 % of control; (dose: 2.0 % in 0.5 ml injection vol, schedule: Q01DX009 (ip), vehicle: water) 100 % of control and 101 % of control; (dose: 8.0 % in 0.5 ml injection vol, schedule: Q01DX009 (ip), vehicle: water) 112 % of control and 113 % of control; (dose: 16.0 % in 0.5 ml injection vol, schedule: Q01DX009 (ip), vehicle: water) 108 % of control.

Turning to `CC[C@@]1(O)C[C@H](OC2CC(N(C)C)C(O)C(C)O2)c2c(cc3c(c2O)C(=O)c2c(O)ccc(O)c2C3=O)[C@H]1C(=O)OC` (stereo not given in full), the T/C is 110 % of control (dose: 1.56 mg/kg/injection, schedule: Q01DX009 (ip), vehicle: other); 123 % of control (dose: 3.13 mg/kg/injection, schedule: Q01DX009 (ip), vehicle: other); 118 % of control (dose: 6.25 mg/kg/injection, schedule: Q01DX009 (ip), vehicle: other).

Regarding `CN(CC(=O)NC(Cc1c[nH]c2ccccc12)C(=O)O)C(=O)OCc1ccccc1` (stereo not given), the T/C by setting is: (dose: 50.0 mg/kg/injection, schedule: Q01DX005 (ip), vehicle: saline with Tween-80) 96 % of control; (dose: 100.0 mg/kg/injection, schedule: Q01DX005 (ip), vehicle: saline with Tween-80) 102 % of control; (dose: 200.0 mg/kg/injection, schedule: Q01DX005 (ip), vehicle: saline with Tween-80) 98 % of control.

In the case of `CC(C(O)c1cc2c(c3ccccc13)CCCC2)N1CCOCC1` (stereo not given), the T/C runs as follows: (dose: 100.0 mg/kg/injection, schedule: Q01DX009 (ip), vehicle: suspension in saline) 104 % of control; (dose: 200.0 mg/kg/injection, schedule: Q01DX009 (ip), vehicle: suspension in saline) 99 % of control; (dose: 400.0 mg/kg/injection, schedule: Q01DX009 (ip), vehicle: suspension in saline) 104 % of control.

As to `NC(=O)N/N=C1\C(=O)N(c2ccc(S(N)(=O)=O)cc2)C(=O)C1C(=O)Nc1ccc(S(N)(=O)=O)cc1` (stereo not given), the T/C was 106 % of control (dose: 60.0 mg/kg/injection, schedule: Q01DX005 (ip), vehicle: saline); 102 % of control (dose: 120.0 mg/kg/injection, schedule: Q01DX005 (ip), vehicle: saline); 102 % of control (dose: 240.0 mg/kg/injection, schedule: Q01DX005 (ip), vehicle: saline).

As to `O=C(c1ccccc1)C(O)O`, the T/C (dose: 25.0 mg/kg/injection, schedule: Q04DX003 (ip), vehicle: saline with Tween-80) is 103 % of control; the T/C (dose: 50.0 mg/kg/injection, schedule: Q04DX003 (ip), vehicle: saline with Tween-80) is 106 % of control; the T/C (dose: 100.0 mg/kg/injection, schedule: Q04DX003 (ip), vehicle: saline with Tween-80) was 106 % of control and 109 % of control.

Consider `C1=Cc2ccccc2C(c2ccccc2)S1` (stereo not given), for which the T/C under setting [1] is 98 % of control; the T/C under setting [2] is 88 % of control; the T/C under setting [3] is 93 % of control; the T/C (dose: 400.0 mg/kg/injection, schedule: Q01DX009 (ip), vehicle: saline) was 89 % of control.

Take `CCCCCCCCCCCCSSSCCCCCCCCCCCC`: the T/C runs as follows: under setting [1], 106 % of control; under setting [2], 97 % of control; under setting [3], 99 % of control and 87 % of control.

On to `COc1cccc(CN2CCN(N=O)CC2)c1`, for which the T/C is, setting by setting: (dose: 25.0 mg/kg/injection, schedule: Q01DX009 (ip), vehicle: Klucel (hydroxypropylcellulose) (HPC)) 105 % of control; (dose: 50.0 mg/kg/injection, schedule: Q01DX009 (ip), vehicle: Klucel (hydroxypropylcellulose) (HPC)) 97 % of control; (dose: 100.0 mg/kg/injection, schedule: Q01DX009 (ip), vehicle: Klucel (hydroxypropylcellulose) (HPC)) 95 % of control; (dose: 200.0 mg/kg/injection, schedule: Q01DX009 (ip), vehicle: Klucel (hydroxypropylcellulose) (HPC)) 105 % of control.
